Assay results: patent US9814238B2, “Herbicide composition” (ISHIHARA SANGYO KAISHA, LTD., priority 2013, dated 2017)

How the values were obtained:
Format in all cases: in vivo
[1] = system: large crabgrass (Digitaria sanquinalis L.); test: Test Example 1: foliar treatment of large crabgrass in vat, visual growth inhibition rate; settings: foliar treatment at 7-leaf stage, 24th day after treatment
Text: (§1) When the herbicidal activity in a case where two active ingredients are combined, is larger than the simple sum of the respective herbicidal activities of the two active ingredients (the expected activity), it is called a synergistic effect. The activity expected by the combination of two active ingredients can be calculated as follows (Colby S. R., “Weed”, vol. 15, p. 20-22, 1967). E=α+β−(α×β÷100) where α: growth inhibition rate when treated with x (g/ha) of herbicide X,
(§2) β: growth inhibition rate when treated with y (g/ha) of herbicide Y,
(§3) E: growth inhibition rate expected when treated with x (g/ha) of herbicide X and y (g/ha) of herbicide Y.
(§4) That is, when the actual growth inhibition rate (measured value) is larger than the growth inhibition rate by the above calculation (calculated value), the activity by the combination can be regarded as showing a synergistic effect.
Upland field soil was put into a 1/1,000,000 ha vat, and seeds of large crabgrass (Digitaria sanquinalis L.) were sown. When the large crabgrass reached 7-leaf stage, predetermined amounts of an emulsifiable concentrate (EC formulation) containing tiafenacil prepared by a conventional method, water dispersible granules containing flazasulfuron as an active ingredient (WG formulation, tradename: SHIBAGEN DF manufactured by Ishihara Sangyo Kaisha, Ltd.), were diluted with water in an amount corresponding to 300 L/ha, and applied for foliar treatment by a small sprayer.
(§5) On the 24th day after treatment, the state of growth of the large crabgrass was visually observed to determine the growth inhibition rate in accordance with the following evaluation standard. The growth inhibition rate (%) (measured value) and the growth inhibition rate (%) (calculated value) calculated by the Colby's formula are shown in Table 1. Growth inhibition rate (%)=0 (equivalent to the non-treated area) to 100 (complete kill)

[2] = system: large crabgrass (Digitaria sanguinalis L.); test: Test Example 2: soil treatment of large crabgrass in pot, visual growth inhibition rate; settings: soil treatment day after sowing, 14th day after treatment
Text: as §1, §2, §3, §4
Upland field soil was put into a 1/500,000 ha pot, and seeds of large crabgrass (Digitaria sanguinalis L.) were sown. […]
as §5, with “14th” for “24th”, “same” for “following”, “standard as in Test Example 1.” for “standard.”, “2.” for “1. Growth inhibition rate (%)=0 (equivalent to the non-treated area) to 100 (complete kill)”

[3] = system: common dayflower (Commelina communis L.); test: Test Example 3: foliar treatment of common dayflower in orchard field, visual growth inhibition rate; settings: foliar treatment at height 35 to 40 cm, 23rd day after treatment
Text: as §1, §2, §3, §4
(§6) An orchard field was compartmentalized into 0.5 square meter per test section. When common dayflower (Commelina communis L.) which naturally grew thereafter reached a height of from 35 to 40 cm, predetermined amounts of a microemulsion (ME formulation) containing tiafenacil prepared by a conventional method and WG formulation containing flazasulfuron as an active ingredient (the same as in Test Example 1) were diluted with water (in an amount corresponding to 300 L/ha) containing 0.5 vol % of an agricultural adjuvant (tradename: Destiny HC, manufactured by Winfield Solutions LLC.) and applied for foliar treatment by a small sprayer.
(§7) On the 23rd day after treatment, the state of growth of the common dayflower was visually observed to determine the growth inhibition rate in accordance with the same evaluation standard as in Test Example 1. The growth inhibition rate (%) (measured value) and the growth inhibition rate (%) (calculated value) calculated by the Colby's formula are shown in Table 3.

[4] = system: large crabgrass (Digitaria sanguinalis L.); test: Test Example 4: foliar treatment of large crabgrass in orchard field, visual growth inhibition rate; settings: foliar treatment at height 50 to 55 cm, 23rd day after treatment
Text: as §1, §2, §3, §4
as §6, with “large crabgrass (Digitaria sanguinalis” for “common dayflower (Commelina communis”, “50” for “35”, “55” for “40”, “ME formulation” for “a microemulsion (ME formulation)”, “as an active ingredient (the same as in Test Example 3)” for “prepared by a conventional method”
as §7, with “4.” for “3.”

[5] = system: common horsetail (Equisetum arvense); test: Test Example 5: foliar treatment of common horsetail in orchard field, visual growth inhibition rate; settings: foliar treatment at height 15 to 20 cm, 23rd day after treatment
Text: as §1, §2, §3, §4
as §6, with “section,” for “section.”, “horsetail (Equisetum arvense)” for “dayflower (Commelina communis L.)”, “15” for “35”, “20” for “40”, “ME formulation” for “a microemulsion (ME formulation)”, “as an active ingredient (the same as in Test Example 3)” for “prepared by a conventional method”
as §7, with “horsetail” for “dayflower”, “5.” for “3.”

Compound | Growth inhibition rate (%) of large crabgrass, Measured value ([1]; dose 12.5 g/ha) [%] | Growth inhibition rate (%) of large crabgrass, Measured value ([1]; dose 25 g/ha) [%] | Growth inhibition rate (%) of large crabgrass, Measured value ([2]; dose 50 g/ha) [%] | Growth inhibition rate (%) of common dayflower, Measured value ([3]; dose 25 g/ha) [%] | Growth inhibition rate (%) of common dayflower, Measured value ([3]; dose 50 g/ha) [%] | Growth inhibition rate (%) of large crabgrass, Measured value ([4]; dose 25 g/ha) [%] | Growth inhibition rate (%) of large crabgrass, Measured value ([4]; dose 50 g/ha) [%] | Growth inhibition rate (%) of large crabgrass, Measured value ([4]; dose 100 g/ha) [%] | Growth inhibition rate (%) of common horsetail, Measured value ([5]; dose 25 g/ha) [%] | Growth inhibition rate (%) of common horsetail, Measured value ([5]; dose 50 g/ha) [%] | Growth inhibition rate (%) of common horsetail, Measured value ([5]; dose 100 g/ha) [%] | Growth inhibition rate (%) of common horsetail, Measured value ([5]; dose 150 g/ha) [%] | inhibition at 20 g/ha ([1]; Digitaria, dose 20 g/ha, read-out: Growth inhibition rate (%) of large crabgrass, Measured value) [%] | inhibition at 20 g/ha ([2]; Digitaria sanguinalis, dose 20 g/ha, read-out: Growth inhibition rate (%) of large crabgrass, Measured value) [%] | inhibition at 20 g/ha ([3]; Commelina communis, dose 20 g/ha, read-out: Growth inhibition rate (%) of common dayflower, Measured value) [%] | inhibition at 40 g/ha ([3]; Commelina communis, dose 40 g/ha, read-out: Growth inhibition rate (%) of common dayflower, Measured value) [%] | inhibition at 40 g/ha ([4]; Digitaria sanguinalis, dose 40 g/ha, read-out: Growth inhibition rate (%) of large crabgrass, Measured value) [%] | inhibition at 20 g/ha ([5]; Equisetum arvense, dose 20 g/ha, read-out: Growth inhibition rate (%) of common horsetail, Measured value) [%] | inhibition at 40 g/ha ([5]; Equisetum arvense, dose 40 g/ha, read-out: Growth inhibition rate (%) of common horsetail, Measured value) [%]
COC(=O)CCNC(=O)C(C)Sc1cc(-n2c(=O)cc(C(F)(F)F)n(C)c2=O)c(F)cc1Cl (racemic) [Tiafenacil, methyl 3-((2RS)-2-{2-chloro-4-fluoro-5-[1,2,3,6-tetrahydro-3-methyl-2,6-dioxo-4-(trifluoromethyl)pyrimidin-1(6H)-yl]phenylthio}propionamido]propionate] | 20 | 30 | 65 | 50 | 60 | 5 | 5 | 8 | 63 | 63 | 68 | 55 |  |  |  |  |  |  | 
COc1cc(OC)nc(NC(=O)NS(=O)(=O)c2ncccc2C(F)(F)F)n1 [Flazasulfuron, 1-(4,6-dimethoxypyrimidin-2-yl)-3-(3-trifluoromethyl-2-pyridylsulfonyl)urea] |  |  |  |  |  |  |  |  |  |  |  |  | 40 | 60 | 45 | 40 | 33 | 55 | 53
